# Reference: patent US20210299657A1, “Method for Development of Microfluidic Assay Device Prototype” (University of Manitoba, priority 2018, published 2021)
# Key:
# [1] = system: MDA-MB-231 breast cancer cells; experiment: Radial microfluidic chemotaxis assay, MDA-MB-231 cells (migration distance); type: cell-based, human; details: for chemotaxis response (migration distance) to the EGF gradient after inhibitor treatment: MDA-MB-231 cells with reduced HMGA2 levels after LIN28 inhibitor, 6 h migration
# Description: (§1) The device pattern was designed using AUTOCAD and printed on a transparent film at high resolution. The SU-8 device master was fabricated on a 3-inch silicon wafer by a two-layer photolithography (10). The first layer defines the cell docking structure that is used to align the cells to one side of the gradient channel prior to migration (FIG. 2). Its thickness should be cell specific, with it being slightly lower than the cell size but not be too low to prevent the cells from crossing, as described herein. We chose ˜2.5 μm for neutrophils and ˜7 μm for breast cancer cells. The Polydimethylsiloxane (PDMS) (Sylgard 184; Dow Corning, Midland, USA) device was fabricated using soft-lithography. Inlets (6 mm diameter), outlets (4 mm diameter), and the cell loading port (2 mm diameter) were punched. The PDMS replica was bonded to a glass slide to seal the channels after plasma treatment. The device channels were coated using rat tail collagen type I (3.8 μg/mL; Advanced BioMatrix, San Diego, USA) for one hour and then blocked by 0.4% BSA in RPMI medium for another hour before the migration experiment.
# (§2) Two microliters of cell suspension were added to the cell loading port of each unit. When the cells had collected in the docking area, chemoattractant solution and migration medium were added to the corresponding inlets (FIG. 2). We used 100 nM IL-8 and 100 nM fMLP dissolved in RPMI-1640 with 0.4% BSA neutrophils. For the migration studies with the human breast cancer cells, EGF (10 ng/ml, 50 ng/ml, 100 ng/ml, 200 ng/ml) dissolved in DMEM/ F-12 plus 1% FBS served as chemoattractant.
# (§3) To characterize proper gradient generation, FITC-dextran (10 kD; Sigma, Oakville, Canada) was added to the solution containing the chemoattractant and fluorescent images were captured using an inverted fluorescent microscope (Ti-U; Nikon, Mississauga, Canada). Upon adding the chemoattractant solution, the inlets were covered and connected with silicone oil (A12728-22, density=0.963 g/ml; Alfa Aesar, Tewksbury, USA) to balance the pressure difference between the two inlets (FIG. 3A). The microscope stage was enclosed by an environmental control chamber to maintain the temperature at 37° C. during the cell migration experiments. Time-lapse images (10 sec intervals for neutrophils and 3 min intervals for the breast cancer cells) recorded cell migration. The faster migration of neutrophils was recorded for 20 minutes, whereas migration of the breast cancer cells was monitored for 6 hours.
# Cell migration and chemotaxis were quantified by calculating the migration distance the cells moved away from the docking site. For MDA-MB-231 experiments, trajectories of representative cells were tracked by manual tracking method using ImageJ. The migration angle ϕ is defined as the angle of the cell displacement vector in relation to the direction of the gradient and was calculated in 12 min intervals. The cosine of ϕ was used to indicate the directionality of cell migration relative to the gradient: 1 indicates cell migration perfectly along the gradient direction; −1 indicates cell migration along the opposite direction of the gradient; a value between 1 and −1 indicates the level of deviation of cell migration from the gradient direction. The cell shape was outlined using ImageJ. Each condition was repeated in at least three independent experiments. For statistical analysis, the two-sample Student's t-test was used to compare different conditions using OriginPro. P<0.05 was considered statistically significant and indicated by an asterisk.
# [2] = system: HMGA2 over-expressing and mock MDA-MB-231 stable transfectants; experiment: Radial microfluidic chemotaxis assay, HMGA2 over-expressing and mock MDA-MB-231 stable transfectants; type: cell-based, human
# Description: (§4) Interleukin-8 (IL8) (R&D systems, Minneapolis, USA), N-Formylmethionyl-leucyl-phenylalanine (fMLP) (Sigma, Oakville, Canada) and epidermal growth factor (EGF) (Bachem, Torrance, USA) were used as the chemoattractant for neutrophils and breast cancer cells, respectively, in the radial microfluidic chip. Neutrophils were isolated from blood of healthy donors using a negative magnetic isolation kit (STEMCELL, Vancouver, Canada). The human breast cancer cell lines MDA-MB-231 and MCF-7 were obtained from ATCC and cultured in DMEM/F12 plus 5% FBS. MDA-MB-231 cells containing a pcDNA3 human full-size HMGA2 expression construct or an empty vector control, as well as HMGA2-knockout MDA-MB-231 cells transduced with a specific lentiviral CRISPR/Cas9 construct (pLV-U6g-EPCG-HMGA2, HS0000278246; Sigma, Oakville, Canada), were cultured with DMEM/F12 medium plus 5% FBS. We employed a rabbit polyclonal anti-HMGA2 antibody (Cell Signalling Technologies, Whitby, Canada) in Western blot analysis to identify MDA-MB-231 clones with homozygous deletion of HMGA2. The small molecule Lin28 inhibitor 1632 (R&D Systems, Minneapolis, USA) was used at 10 and 20 μM to down-regulate endogenous HMGA2 in MDA-MB-231 cells.
# as §2
# as §3, with “The microscope stage was enclosed by an environmental control chamber to maintain the temperature at 37° C. during the cell migration experiments.” left out
# (§5) Cell migration and chemotaxis were quantified by calculating the migration distance the cells moved away from the docking site. […] The migration angle ϕ is defined as the angle of the cell displacement vector in relation to the direction of the gradient and was calculated in 12 min intervals. […]
# human blood neutrophils = experiment: Radial microfluidic chemotaxis assay, neutrophils (migration distance); type: cell-based; details: for neutrophil chemotaxis: 100 nM gradient, 20-minute migration experiment
# Description: as §1
# Two microliters of cell suspension were added to the cell loading port of each unit. […]
# To characterize proper gradient generation, FITC-dextran (10 kD; Sigma, Oakville, Canada) was added to the solution containing the chemoattractant and fluorescent images were captured using an inverted fluorescent microscope (Ti-U; Nikon, Mississauga, Canada). […] Time-lapse images (10 sec intervals for neutrophils and 3 min intervals for the breast cancer cells) recorded cell migration. The faster migration of neutrophils was recorded for 20 minutes, whereas migration of the breast cancer cells was monitored for 6 hours.
# as §5
# [3] = system: endogenous HMGA2 protein levels in MDA-MB-231 cells; experiment: Western blot analysis of HMGA2 protein in MDA-MB-231 cells; type: cell-based, human; details: 72 h of treatment; for endogenous HMGA2 protein levels: 10 and 20 μM
# Description: as §4
# To test this hypothesis and further characterize the role of HMGA2 in chemotaxis of MDA-MB-231, we opted for a pharmacological (LIN28 inhibitor 1632) and CRISPR/Cas9 mediated HMGA2 knockout strategy (FIG. 4B-C). […] Next, we treated MDA-MB-231 with a specific CRISPR/Cas9 lentiviral construct and the homozygous loss of HMGA2 expression in MDA-MB-231 HMGA2 knockout (KO) cells was confirmed by Western blot analysis (FIG. 6C). When exposed to a 100 ng/mL EGF gradient in the radial microfluidic chemotaxis assays, we observed a marked reduction in migration distance in MDA-MB-231 KO clones when compared to parental MDA-MB-231 (FIG. 7C). […] This novel higher throughput device may be a valuable new tool to excel the search for new therapeutic drugs and small molecules that can mitigate chemotaxis in inflammatory and tumor cells. […]
compound,measurement,setting,value
"EGF: epidermal growth factor (Bachem), chemoattractant for breast cancer cells (NSDSECPLSHDGYCLHDGVCMYIEALDKYACNCVVGYIGERCQYRDLKWWELR; Epidermal growth factor; UniProt P01133 971-1023, looked up)",migration of MDA-MB-231 cells in EGF gradient,"[1]; 200, 100, and 50 ng/ml EGF gradient",optimal and comparable migration
same,directional migration of MDA-MB-231 cells in EGF gradient,"[1]; EGF 10 ng/ml gradient, compared with higher EGF concentrations",directional migration decreased significantly
same,migration of MDA-MB-231 cells in EGF gradient,"[1]; EGF gradient 100 ng/mL, 6 h",actively migrated out of the docking structure towards the EGF gradient
same,"directional migration of MDA-MB-231 cells, low input EGF gradient",[1]; gradient with input EGF concentration 10 ng/mL,significantly increase directional migration
same,migration of MDA-MB-231 cells in uniform EGF field,"[1]; uniform field of EGF 100 ng/mL, 6 h",remained stationary in the docking structure and failed to show a chemotaxis response
same,migration of transfectants at lowest EGF gradient vs uniform field or medium,[2]; EGF gradient 10 ng/mL vs uniform EGF field 50 ng/mL or normal medium,significantly stronger migration
same,"migration distance of transfectants from the docking site, lowest EGF gradient","[2]; EGF gradient 10 ng/mL, compared with the other EGF gradients",migrate the shortest distance
same,migration of transfectants in EGF gradients,"[2]; EGF gradients 200, 100, 50 and 10 ng/mL, 6 h",enhanced and directional migration with all EGF gradients tested
same,migration of transfectants in uniform EGF field,"[2]; uniform EGF field 50 ng/mL, 6 h",such migratory behaviour was absent
"CSCC[C@H](NC=O)C(=O)N[C@@H](CC(C)C)C(=O)N[C@@H](Cc1ccccc1)C(=O)O [fMLP, N-Formylmethionyl-leucyl-phenylalanine]",chemotaxis response with the fMLP gradient relative to the IL-8 gradient,"human blood neutrophils; 100 nM fMLP gradient vs 100 nM IL-8 gradient, 20 minutes",more than 3 fold
same,neutrophil chemotaxis,human blood neutrophils,stimulated neutrophil chemotaxis
"IL-8: Interleukin-8 (R&D systems), chemoattractant for neutrophils",neutrophil chemotaxis,human blood neutrophils,stimulated neutrophil chemotaxis
CC(=O)N(C)c1cccc(-c2ccc3nnc(C)n3n2)c1 [LIN28 inhibitor 1632],presence of HMGA2 protein,[3]; 20 μM,almost completely abolished the presence of HMGA2
same,endogenous HMGA2 protein levels,[3],down-regulated endogenous HMGA2 protein levels
same,endogenous HMGA2 protein levels,[3]; listed as LIN28 inhibitor,verifiable reduction of endogenous HMGA2 levels
same,chemotaxis response (migration distance) to the EGF gradient after inhibitor treatment,[1],markedly reduced migratory behavior
same,chemotaxis response (migration distance) to the EGF gradient after inhibitor treatment,[1]; listed as 1632,markedly reduced chemotaxis
same,chemotaxis response (migration distance) to the EGF gradient after inhibitor treatment,[1]; listed as LIN28 inhibitor,significant reduction in chemotaxis response to the EGF gradient
